Holding throughout (assay): relative viability (nuclei count vs DMSO), 5 days (fraction); higher = more cells survive
Compound in the experiment “IDH-C35 + Pemetrexed”: Cc1ccccc1C(C(=O)NC1CCCCC1)N(C(=O)Cn1ccnc1C)c1cccc(F)c1 [IDH-C35] + Nc1nc2[nH]cc(CCc3ccc(C(=O)N[C@@H](CCC(=O)O)C(=O)O)cc3)c2c(=O)[nH]1 [Pemetrexed] (partner 0.2 µM)
In a few lines: (§1)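 Cells from lung cancer lines were seeded into 1536-well plates and, one day later, dosed by pin tool. Treatments were either a single drug or a fixed dose of an anchor drug with five library-drug doses (not always all listed) in √10 steps. After 5 days, nuclei were stained in a one-step fixation (final 0.05% Triton X-100, 1% formaldehyde, 1 ug/ml Hoechst) and counted on 4× images, and relative viability is the treated-to-vehicle nuclei ratio, as the median of duplicate plates.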

Compound in experiment [1]: CC1=C(C(=NN1)C)CC2=C(C3=C(S2)N(C(=O)N(C3=O)C)CC(C)C)C(=O)N4C[C@@H](CO4)O + Cc1nc(NC(=O)N2CCC[C@H]2C(N)=O)sc1-c1ccnc(C(C)(C)C(F)(F)F)c1 [Alpelisib] (partner 2 µM)
In a few lines:
as §1

Compound in the next experiment: Cc1ccccc1C(C(=O)NC1CCCCC1)N(C(=O)Cn1ccnc1C)c1cccc(F)c1 [IDH-C35]
An outline of the steps:
(§2)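 Following overnight incubation at 37 °C, lung cancer cell lines in 1536-well plates were pinned with five library-drug doses (not always all listed) in √10 steps on vehicle-anchored plates. The cells then spent 5 days without medium change before a combined fix, permeabilisation and Hoechst stain, 4× imaging and MetaXpress nuclear counts. Viability is the treated-to-vehicle ratio of nuclei, taken as the median across plates. Only plates with control CV below 25% and at least one doubling passed.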

Compound in experiment [2]: CC1=C(C(=NN1)C)CC2=C(C3=C(S2)N(C(=O)N(C3=O)C)CC(C)C)C(=O)N4C[C@@H](CO4)O
In a few lines: as §2

From the supplement of paper PMC10307832 come the findings set out here.

Take PC-14: the relative viability with IDH-C35 + Pemetrexed (first compound 0.08 µM) was found to be 0.127; with IDH-C35 + Pemetrexed (first compound 0.253 µM), 0.135; with IDH-C35 + Pemetrexed (first compound 0.8 µM), 0.152; in the experiment with IDH-C35 + Pemetrexed (first compound 2.53 µM), 0.154; in the experiment with IDH-C35 + Pemetrexed (first compound 8 µM) it was 0.133; in experiment [1] (first compound 0.0025 µM) it was 1.05. In addition, the relative viability was determined as 0.877 in experiment [1] (first compound 0.007906 µM); 0.886 in experiment [1] (first compound 0.025 µM); 0.974 in experiment [1] (first compound 0.07906 µM); 0.975 in experiment [1] (first compound 0.25 µM); 1.04 with IDH-C35 (0.08 µM); 0.996 with IDH-C35 (0.253 µM). Moreover, the relative viability came to 1 in the experiment with IDH-C35 (0.8 µM); 0.997 with IDH-C35 (2.53 µM); 0.937 with IDH-C35 (8 µM); 1.06 in experiment [2] (0.0025 µM); 1.06 in experiment [2] (0.007906 µM); 0.889 in experiment [2] (0.025 µM). Also, the figures for the relative viability in experiment [2] (0.07906 µM) and in experiment [2] (0.25 µM) were 1.12 and 1.16, respectively.

Consider RERF-LC-KJ, for which the relative viability with IDH-C35 + Pemetrexed (first compound 0.08 µM) worked out at 0.431; with IDH-C35 + Pemetrexed (first compound 0.253 µM), 0.492; with IDH-C35 + Pemetrexed (first compound 0.8 µM), 0.478; with IDH-C35 + Pemetrexed (first compound 2.53 µM), 0.481; in the experiment with IDH-C35 + Pemetrexed (first compound 8 µM), 0.523; in experiment [1] (first compound 0.0025 µM), 0.977. Also, the relative viability in experiment [1] (first compound 0.007906 µM) came to 0.939; in experiment [1] (first compound 0.025 µM), 0.92; in experiment [1] (first compound 0.07906 µM) it was 0.775; in experiment [1] (first compound 0.25 µM), 0.964; with IDH-C35 (0.08 µM) it was 0.962; with IDH-C35 (0.253 µM), 0.929. Further, the relative viability came out at 1.03 with IDH-C35 (0.8 µM); 1.01 with IDH-C35 (2.53 µM); 0.943 in the experiment with IDH-C35 (8 µM); 1.01 in experiment [2] (0.0025 µM); 1.07 in experiment [2] (0.007906 µM); 0.985 in experiment [2] (0.025 µM). Also, the relative viability in experiment [2] (0.07906 µM) was determined as 0.98; in experiment [2] (0.25 µM) it was 1.06.

For the cell line SK-LU-1, the relative viability with IDH-C35 + Pemetrexed (first compound 0.08 µM) stood at 1.06; with IDH-C35 + Pemetrexed (first compound 0.253 µM), 0.983; with IDH-C35 + Pemetrexed (first compound 0.8 µM), 1.03; with IDH-C35 + Pemetrexed (first compound 2.53 µM) it was 1.05; with IDH-C35 + Pemetrexed (first compound 8 µM) it was 0.887; in experiment [1] (first compound 0.0025 µM), 0.879. For the same cell line, the relative viability in experiment [1] (first compound 0.007906 µM) worked out at 0.565; in experiment [1] (first compound 0.025 µM), 0.537; in experiment [1] (first compound 0.07906 µM) it was 0.782; in experiment [1] (first compound 0.25 µM), 0.582; in the experiment with IDH-C35 (0.08 µM), 1.01; with IDH-C35 (0.253 µM), 0.986. Besides, the relative viability with IDH-C35 (0.8 µM) was determined as 1.1; with IDH-C35 (2.53 µM) it was 1.05; with IDH-C35 (8 µM) it was 1.01; in experiment [2] (0.0025 µM) it was 0.914; in experiment [2] (0.007906 µM) it was 0.789; in experiment [2] (0.025 µM), 0.634. The relative viability in experiment [2] (0.07906 µM) was found to be 0.714; in experiment [2] (0.25 µM) it was 0.615.

Turning to SK-MES-1, the relative viability with IDH-C35 + Pemetrexed (first compound 0.08 µM) was 0.91; in the experiment with IDH-C35 + Pemetrexed (first compound 0.253 µM) it was 0.988; in the experiment with IDH-C35 + Pemetrexed (first compound 0.8 µM), 0.925; with IDH-C35 + Pemetrexed (first compound 2.53 µM), 0.861; with IDH-C35 + Pemetrexed (first compound 8 µM), 0.874; in experiment [1] (first compound 0.0025 µM), 0.964. The relative viability in experiment [1] (first compound 0.007906 µM) was 0.997; in experiment [1] (first compound 0.025 µM), 1.04; in experiment [1] (first compound 0.07906 µM), 0.878; in experiment [1] (first compound 0.25 µM), 1.01; with IDH-C35 (0.08 µM), 0.983; in the experiment with IDH-C35 (0.253 µM), 0.984. Further, the relative viability came out at 0.985 with IDH-C35 (0.8 µM); 1.02 with IDH-C35 (2.53 µM); 0.986 in the experiment with IDH-C35 (8 µM); 1.03 in experiment [2] (0.0025 µM); 1.07 in experiment [2] (0.007906 µM); 1.02 in experiment [2] (0.025 µM). For the same cell line, the relative viability in experiment [2] (0.07906 µM) is 1.07; in experiment [2] (0.25 µM) it was 1.06.

SW 1573: the relative viability with IDH-C35 + Pemetrexed (first compound 0.08 µM) is 0.692; in the experiment with IDH-C35 + Pemetrexed (first compound 0.253 µM), 0.889; in the experiment with IDH-C35 + Pemetrexed (first compound 0.8 µM), 0.879; in the experiment with IDH-C35 + Pemetrexed (first compound 2.53 µM), 0.789; in the experiment with IDH-C35 + Pemetrexed (first compound 8 µM) it was 0.763; in experiment [1] (first compound 0.0025 µM), 0.756. The relative viability amounted to 0.699 in experiment [1] (first compound 0.007906 µM); 0.764 in experiment [1] (first compound 0.025 µM); 0.715 in experiment [1] (first compound 0.07906 µM); 0.917 in experiment [1] (first compound 0.25 µM); 1.1 in the experiment with IDH-C35 (0.08 µM); 1.12 in the experiment with IDH-C35 (0.253 µM). The relative viability with IDH-C35 (0.8 µM) amounted to 0.951; with IDH-C35 (2.53 µM) it was 0.875; in the experiment with IDH-C35 (8 µM), 0.898; in experiment [2] (0.0025 µM) it was 1.02; in experiment [2] (0.007906 µM), 1.09; in experiment [2] (0.025 µM), 0.975. Moreover, the values for the relative viability in experiment [2] (0.07906 µM) and in experiment [2] (0.25 µM) were 0.957 and 1.05, respectively.

As to UMC-11, the relative viability with IDH-C35 + Pemetrexed (first compound 0.08 µM) was 0.811; with IDH-C35 + Pemetrexed (first compound 0.253 µM), 0.915; in the experiment with IDH-C35 + Pemetrexed (first compound 0.8 µM), 0.804; with IDH-C35 + Pemetrexed (first compound 2.53 µM), 0.853; with IDH-C35 + Pemetrexed (first compound 8 µM), 0.88; in experiment [1] (first compound 0.0025 µM), 1.03. In addition, the relative viability was determined as 0.897 in experiment [1] (first compound 0.007906 µM); 0.75 in experiment [1] (first compound 0.025 µM); 0.986 in experiment [1] (first compound 0.07906 µM); 0.977 in experiment [1] (first compound 0.25 µM); 1.03 in the experiment with IDH-C35 (0.08 µM); 0.975 in the experiment with IDH-C35 (0.253 µM). The relative viability in the experiment with IDH-C35 (0.8 µM) worked out at 0.986; with IDH-C35 (2.53 µM), 0.951; with IDH-C35 (8 µM), 1.02; in experiment [2] (0.0025 µM), 1.08; in experiment [2] (0.007906 µM), 1.04; in experiment [2] (0.025 µM) it was 0.974. Further, the relative viability was 0.993 in experiment [2] (0.07906 µM) and 1.18 in experiment [2] (0.25 µM).
